Among the data in US20250382290A1, “SALTS OF SOS1 INHIBITORS” (MIRATI THERAPEUTICS, INC., priority 2022, published 2025) are IC50 values, retold here.

For the assay, the system named is pERK (KRas-mediated, SOS1-dependent) in MKN1 or H358 cells. Kind of assay: cells. The following applies: read-out: IC50 (pERK inhibition).

Experimental: Assay day 1, cells were dosed with the compounds of the invention with a 10 μm starting concentration and serially diluted 3× for a total of 9 concentrations. The cells were incubated for approximately 0.5-1 hour with the compounds solubilized in DMSO at 37° C. Cells were immediately fixed by adding 50 μL of 4% formaldehyde to all wells in a fume hood and the plates were incubated for 20 minutes at room temperature. The formaldehyde was discarded from the plates and 150 μL of ice-cold methanol was added to permeabilize the cells for 10 minutes at −20° C. The methanol was discarded from each of the plates and any liquid remaining in the plate by tapping the plate against paper towels. […] The plates were incubated overnight at 4° C. on a shaker.
On Assay day 2, the primary antibody solution was removed. […] The secondary antibody solution as removed and each plate was washed with PBST 3× times. Any liquid remaining was discarded and the plate was imaged using the Licor Odyssey machine according to the manufacturer's instruction, using a set focus length at 3 mm and both 800 nm and 700 nm filters. The GAPDH normalized scan values for each well were divided by the average of vehicle wells to get the % of pERK inhibition. The IC50 values were then calculated with the Graph pad Prism software.

Turning to `Cc1c(C#N)cccc1[C@@H](C)Nc1nnc(C)c2cnc(N3CCOCC3)cc12` [Example 12-10, (R)-2-methyl-3-(1-((4-methyl-7-morpholinopyrido[3,4-d]pyridazin-1-yl)amino)ethyl)benzonitrile], the IC50 worked out at 46 nM.

For orientation: IC50 means the concentration needed to halve the response being measured.
